From PMC6071225 (Viruses, 2018) come the findings set out here.

Read-outs that look alike come from different tables or passages of the source.

The subject of one assay is wt NA2009. The class given is biochemical.
In assay [1] the test system is catalytic domain of wild-type NA2009. It is filed as binding. The following applies: wt.
The mark [2] stands for this setting: 50 mM MES (or ACES), pH 6.15, 25 °C.
[3] abbreviates: 50 mM MES (or ACES), pH 6.15, 25 °C, listed as Oseltamivir.

For `CCC(CC)O[C@@H]1C=C(C(=O)O)C[C@H](N)[C@H]1NC(C)=O` [oseltamivir carboxylate], the “Fold Ki” value in the assay on wt NA2009 (wt NA2009, compared with that of wt NA2009) was found to be 1 fold. Moreover, affinity at wt NA2009 (wt NA2009, mean ± s.d., two independent experiments, 37 °C) was put at a Ki of 24 ± 4 nM. Further, the “Fold Kd” value in assay [1] (compared with that of wt NA2009) is on record as 1 fold. In assay [1] (setting [2]), the Kd turned out to be 140 ± 20 nM, the ΔG was -9.4 ± 0.1 kcal/mol, the ΔH was -10.8 ± 0.1 kcal/mol and the “−T·ΔS” value worked out at 1.5 ± 0.2 kcal/mol. Moreover, in assay [1] (setting [3]), the ΔG is -9.4 kcal/mol, the ΔH is -10.8 kcal/mol and the “−T·ΔS” value is 1.5 kcal/mol.
